Legend:
[1] = Thermodynamic solubility in PBS; assay type: physicochemical; conditions: PBS pH 7.4, 25 °C
[2] = target: T1, recombinant human thymidine kinase 1 (hTK1) (Homo sapiens, UniProt P04183); conditions: for kcat ± SD: apparent, varying substrate concentrations, 100 μM ATP, three replicates; for rkcat/Km (kcat/Km relative to that of dThd): current recombinant hTK1 preparation (specific activity 441 nmol/min/mg)
T1 sequence (P04183 1-234): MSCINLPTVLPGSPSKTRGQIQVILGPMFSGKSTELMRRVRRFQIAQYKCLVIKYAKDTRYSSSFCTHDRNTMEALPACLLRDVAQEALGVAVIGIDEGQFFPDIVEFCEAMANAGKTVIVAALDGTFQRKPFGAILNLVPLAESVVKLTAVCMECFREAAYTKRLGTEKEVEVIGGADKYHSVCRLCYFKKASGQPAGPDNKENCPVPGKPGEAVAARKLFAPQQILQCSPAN

[3] = target: T1, recombinant human thymidine kinase 1 (hTK1); conditions: PTA conditions
L929 TK (+) cells = conditions: cited from earlier work
[4] = target: T1, recombinant human thymidine kinase 1 (hTK1); conditions: different hTK1 enzyme preparation, previous study; cited from earlier work
intracranial RG2 glioma = conditions: rats bearing intracranial RG2 glioma, cited from earlier work

Solubility in PBS pH 7.4 [1]	kcat ± SD [2] [S^-1]	rkcat/Km (kcat/Km relative to that of dThd) [2] [%]	Substance	Stability under phosphoryl transfer assay conditions (phosphorylated side products, dTMP) [3]	In vitro uptake in L929 TK (+) cells relative to L929 TK (−) cells (L929 TK (+) cells)	rkcat/Km [4] [%]	Boron concentration in tumor relative to normal brain (intracranial RG2 glioma) [fold]	Boron concentration in normal brain (intracranial RG2 glioma; normal brain) [μg B/g tumor]	Boron concentration in tumor (intracranial RG2 glioma; tumor) [μg B/g tumor]
13.3 - 13.8 |g/mL ^*	0.32 ± 0.02	19.7	3-[1(2)-closo-1,7-Carboranylbutyltetrazol-5-yl]thymidine [11d1/2]	–	–	–	–	–	–
33.9 ± 1.4 |g/mL	0.47 ± 0.04	8.9	3-[1(2)-closo-1,7-Carboranylbutyltetrazol-5-ylmethyl]thymidine [9d1/2]	–	–	–	–	–	–
42.6 ± 1.0 |g/mL	0.35 ± 0.03	–	3-[1(2)-closo-1,7-Carboranylethyltetrazol-5-yl]thymidine [11b1/2]	–	–	–	–	–	–
133.1 ± 5.2 |g/mL	0.44 ± 0.03	14.9	3-[1(2)-closo-1,7-Carboranylethyltetrazol-5-ylmethyl]thymidine [9b1/2]	–	–	–	–	–	–
25.4 - 26.3 |g/mL^2	0.37 ± 0.06	5.0	3-[1(2)-closo-1,7-Carboranylpropyltetrazol-5-yl]thymidine [11c1/2]	–	–	–	–	–	–
84.2 ± 4.1 |g/mL	0.39 ± 0.04	7.6	3-[1(2)-closo-1,7-Carboranylpropyltetrazol-5-ylmethyl]thymidine [9c1/2]	–	–	–	–	–	–
>19.5 mg/mL	–	–	3-[2-Imino-2-{2-(closo-1,7-carboranyl)ethylamino}ethyl]thymidine [Compound 3e]	did not appear to produce significant amounts of dTMP as a side product	–	–	–	–	–
>15 mg/mL	–	–	3-[2-Imino-2-{3-(closo-1,7-carboranyl)propylamino}ethyl]thymidine [Compound 3f]	did not appear to produce significant amounts of dTMP as a side product	–	–	–	–	–
7-10 |g/mL	0.42 ± 0.03	10.8	3-[5-{2-(2,3-dihydroxyprop-1-yl)-o-carboran-1-yl}pentan-1-yl]thymidine [Compound N5-2OH]	–	5-10 fold	35.8	10	2.6	27.6

Source: PMC3587680 (European journal of medicinal chemistry, 2012)
